# Reference: US8318812B2, “Therapeutic agents for the treatment of lymphoid malignancies” (The Ohio State University Research Foundation, priority 2006, dated 2012)
# Tests used:
# [1] = tested on: acute myeloid leukemia (AML) cell lines; assay: MTS proliferation assay in AML cell lines; assay type: cell-based; details: 48 hours
# Protocol: Cell cultures were exposed for 48 hours to vehicle control and increasing concentrations of FTY720, and subsequently subjected to MTS assay per manufacturer's instructions. Mean concentrations (FIG. 9A) at which proliferation was inhibited by 50% (IC50) and representative dose curves (FIG. 9B) are shown. […] Using MTS assay, inhibition of cell proliferation for various derivatives was examined.
# [2] = tested on: Mino cells; assay: Cell cycle analysis by flow cytometry in Mino cells; assay type: cell-based, Human; details: compared to vehicle control
# Protocol: Deregulated cyclin D1 expression contributes to cell cycle defects in MCL cells. […] Mino cells were treated with FTY720 for 12, 24 and 48 hrs and subjected to cell cycle analysis by flow cytometry. […] This decrease in S phase is entry is further reflected by accumulation of cells in G1 phase of the cell cycle.
# [3] = tested on: PP2A; assay: PP2A activity (malachite green phosphatase assay) in lysates of CLL cells; assay type: cell-based, Human; details: 10 uM FTY720
# Protocol: PP2A Activity: The protein phosphatase activity of total cellular lysate was determined by measuring the generation of free PO4 from the threonine phosphopeptide using the malachite green-phosphate complex assay as described by the manufacturer (Upstate, Charlottesville, […].). Cell lysates were prepared in a low detergent lysis buffer (1% Nonidet P-40, 10 mM HEPES, 0.5M NaCl, 10% Glycerol, 1 mM PMSF, 5 mM Benzamidine, 10 μg/ml leupeptin). The phosphatase assay was performed in a PP2A-specific reaction buffer (Upstate) using 750 μM phosphopeptide substrate. After 30-min incubation at 30° C. malachite dye was added, and free phosphate was measured by optical density at 650 nm. To avoid variability among different immunoprecipitated samples, the phosphatase activities were normalized with the amount of PP2A immunoprecipitated, as detected and quantified by western blot analysis of each treatment group.
# In order to determine if FTY720 induced activation of PP2A enzyme in CD19^+ B cells from CLL patients were treated with 10 uM FTY720 for 0, 1, 2, 3, 4 and 15 hrs and the PP2A activity in the lysates were quantified using a functional assay following immunoprecipitation of PP2A enzyme. As reported previously in other systems, FTY720 induced a consistent 2-3 fold increase in PP2A activation with the peak response observed at 4 hour post treatment (FIG. 6a). […] Similar phenomenon was also observed in Ramos B cell line. FTY720 induced activation of PP2A in Ramos cell line as early as 3 hours and this induced PP2A activity was inhibited by okadaic acid (FIG. 7a-b).
# [4] = tested on: AML cell lines; assay: Cell cycle analysis (propidium iodide DNA content) in AML cell lines; assay type: cell-based; details: 1 uM and 10 uM, 48 hours
# Protocol: Cell suspensions were treated with vehicle control, 1 uM, and 10 uM FTY720 for 48 hours. After fixation in ethanol, samples were stained with propidium iodide, and assessed for DNA content. Percentage of cells in subG1, G1, S, and G2-M for each cell line are depicted (FIG. 11A) with representative plots below for MV411 (FIG. 11B). Although cell cycle arrest is not seen, induction of apoptosis is noted by the increased fraction of sub G1 with FTY720 treatment.
# [5] = tested on: primary MCL cells; assay: Annexin V/PI toxicity in primary MCL cells; assay type: cell-based; details: Homo sapiens, WinNolin sigmoid inhibitory model
# Protocol: (§1) Primary MCL cells were isolated from PBMC (with informed patient consent under a protocol approved by IRB) as described before. All the MCL patients were identified as outlined by the World Health Organization (WHO) classification. Human mantle cell lymphoma patient cell lines (Mino and Jeko) were obtained from Dr. Raymond Lai. Primary cells or MCL cell lines were incubated in RPMI 1640 media, supplemented with 10%-20% heat-inactivated fetal bovine serum, 2 mM L-glutamine and penicillin (100 U/mL)/streptomycin ([…]) at 37° C. in an atmosphere of 5% CO2. FTY720 was synthesized as previously described. Toxicity was determined by flow cytometry using Annexin-V-FITC and Propidium Iodide (PI) staining. Apoptotic cells were identified as Annexin-V+ and/or PI+ cells. Cells excluding both FITC and PI were considered viable. Western Blotting was performed as described previously using indicated antibodies. The PARP (Ab-2) and Caspase 9 antibodies were purchased from Oncogene/Calbiochem/EMD Biosciences (San Diego, Calif.). Cyclin D1, Akt, Actin, Mcl-1, p-ERK, ERK and Bcl-2 were obtained from Santa Cruz biotech (Santa Cruz, Calif.).
# (§2) Several therapeutic agents, including fludarabine, chlorambucil, 2-chloro-2-deoxyadenosine and glucocorticoids, induce toxicity in B cell malignancies through activating caspases, the cysteine proteases of CED3/ICE family. […]
# [6] = tested on: PARP; assay: Western blot of PARP processing in Mino cells; assay type: cell-based, Human; details: Mino cells 24 hrs post treatment
# Protocol: as §1, §2
structure (smiles),measurement,setting,value
"CCCCCCCCc1ccc(CCC(N)(CO)CO)cc1.Cl [FTY720, 2-Amino-2-[2-(4-octylphenyl)ethyl]propane 1,3-diol hydrochloride]",proliferation of AML cell lines (MTS),[1],inhibits proliferation
same,reduction in cells in S-phase,[2],~48%
same,increase in PP2A activation,[3],2-3 fold
same,time of peak PP2A response,[3],4 h
same,cell cycle arrest in AML cell lines,[4],does not cause cell cycle arrest
same,IC50,[5],10.7 µM
same,PARP processing,[6],PARP processing comparable to the levels seen with Fludarabine
